This data set concerns the target T1, CYP2B6 (Homo sapiens, UniProt P20813).
T1 sequence (P20813 1-491): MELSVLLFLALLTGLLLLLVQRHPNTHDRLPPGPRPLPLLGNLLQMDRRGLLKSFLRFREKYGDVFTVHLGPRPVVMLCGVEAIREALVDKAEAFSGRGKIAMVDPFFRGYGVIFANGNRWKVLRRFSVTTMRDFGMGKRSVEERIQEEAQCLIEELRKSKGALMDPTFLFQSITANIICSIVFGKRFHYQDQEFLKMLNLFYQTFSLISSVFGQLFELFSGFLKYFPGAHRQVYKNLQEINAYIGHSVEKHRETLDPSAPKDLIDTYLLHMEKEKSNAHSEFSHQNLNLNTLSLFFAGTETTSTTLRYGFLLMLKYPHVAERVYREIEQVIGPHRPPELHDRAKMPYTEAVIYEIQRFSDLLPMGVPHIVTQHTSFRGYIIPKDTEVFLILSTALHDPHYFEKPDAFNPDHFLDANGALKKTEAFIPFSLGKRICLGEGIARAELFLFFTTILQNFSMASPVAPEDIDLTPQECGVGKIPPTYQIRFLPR
In words: Direct inhibition of CYP2B6 (Bupropion hydroxylase) activity in pooled human liver microsomes. The conditions noted are these: pH 7.4, probe Bupropion (hydroxylation to hydroxyBupropion). (Liver microsomes are a subcellular fraction often used to study metabolism.)

Method: The total amount of organic solvent was ≦1%. Each incubation included 0.1 M phosphate buffer (pH 7.4), substrate, inhibitor and microsomal protein in a final volume of approximately 0.5 mL. Reactions were initiated by addition of NADPH (1 mM final concentration) and incubated for the indicated times at 37° C. with gentle agitation.
Control incubations included positive inhibitor control samples for direct inhibition as well as samples without NADPH. All reactions were terminated by the addition of organic solvent, and internal standard was added (when appropriate), and samples were mixed and centrifuged at approximately 3000 rpm for 10 minutes. The organic layer was transferred to a clean tube and evaporated to dryness at about 40° C. under nitrogen. The sample was reconstituted and analyzed by LC MS/MS.
Incubations to determine CYP2B6-mediated conversion of Bupropion to hydroxyBupropion (OHBP) in microsomal preparations were terminated by addition of 2.5 mL isoamyl alcohol: ethyl acetate (1:100, v:v). The internal standard, hydroxyBupropion-d6, and a saturated sodium chloride solution (0.25 mL) were added to all samples. […]
Reaction velocities (V) were calculated using Equation 1:
V(nmol/min/mg)=calculated ng/mL×0.5mL/(MW ng/nmol)/min/mg Equation 1
Percentage of remaining activity was determined using the following equation: […]

Take `S=P(N1CC1)(N1CC1)N1CC1` [Positive Control, ThioTEPA]: the activity at 75 μM was 22.8%.

For the origin of these results see patent US20100016294A1, “METHODS FOR REDUCING THE RISK OF AN ADVERSE DRUG I[…] A PATIENT SUFFERING FROM INSOMNIA” (QUESTCOR PHARMACEUTICALS, INC., priority 2008, published 2010).
